In patent publication US9815794B2, “Inhibition of bacterial biofilms and microbial growth with imidazole derivatives” (North Carolina State University, priority 2011, dated 2017):
≈ marks a conversion by molar mass, not a printed value. Like-named read-outs stand apart in the source and are kept apart here.

Assays:
E. coli [1] = assay: Biofilm formation inhibition, crystal violet reporter assay; format: cell-based; conditions: Escherichia coli, 100 μM
Method: (§1) The ability of each member of the pilot library to inhibit either E. coli or MDRAB biofilm formation at 100 μM was assessed using a crystal violet reporter assay (O'Toole et al., Mol. Microbiol., 1998, 30: 295-304).
This is typically indicative of biofilm inhibition via a traditional microbicidal mechanism instead of a mechanism that modulates biofilm formation through non-microbicidal mechanisms. […] At this concentration, a 97% reduction in bacterial growth was observed.

MDRAB [2] = assay: as above; format: cell-based
Method: as §1

E. coli [3] = assay: Broth microdilution MIC; format: cell-based; conditions: Escherichia coli
Method: (§2) Once it was determined that this specific 4,5-disubstitution pattern imparted microbicidal activity onto the 2-AI framework, this activity was quantified by measuring the MIC of each derivative against a variety of representative pathogenic bacterial strains using the microdilution protocol (CSLI, Performance Standards for Antimicrobial Suceptibility Testing; Nineteenth Informational Supplement, Clinical and Laboratory Standards Institute, Wayne, Pa., 2009). E. coli, MDRAB, P. aeruginosa, MRSA, MSSA, S. epidermidis and VRE were used for initial evaluation. From this screen, compound 15 was determined to be the lead compound and had MIC values (μg/mL) of 2, 2, 1, 0.5, 0.25, and 1 against E. coli, MDRAB, MRSA, VRE, S. Epidermidis and MSSA.
(§3) S. aureus (ATCC #29213), S. epidermidis (ATCC #29886), MRSA (ATCC # BAA-44), MDRAB (ATCC # BAA-1605), vancomycin resistant Enterococcus faecium (VRE) (ATCC #51559) and E. coli (ATCC #35695) were obtained from the ATCC. Mechanically difibrinated sheep blood (DSB100) was obtained from Hemostat Labs. Mueller-Hinton medium was purchased from Fluka (#70192).
(§4) Broth Microdilution Method for MIC Determination.

MDRAB [4] = assay: Broth microdilution MIC; format: cell-based
Method: as §2, §3, §4

S. epidermidis = assay: Broth microdilution MIC; format: cell-based
Method: as §2, §3, §4

MRSA = assay: Broth microdilution MIC; format: cell-based, methicillin-resistant S. aureus; conditions: Staphylococcus aureus
Method: as §2, §3, §4

MSSA = assay: Broth microdilution MIC; format: cell-based, S. aureus; conditions: Staphylococcus aureus
Method: as §2, §3, §4

VRE = assay: Broth microdilution MIC; format: cell-based, vancomycin resistant Enterococcus faecium; conditions: Enterococcus
Method: as §2, §3, §4

Vibrio cholerae = assay: Marine bacteria microdilution MIC; format: cell-based; conditions: Vibrio cholerae, V. cholerae
Vibrio vulnificus = assay: Marine bacteria microdilution MIC; conditions: Vibrio vulnificus, V. vulnificus
Listonella anguillarum = assay: Marine bacteria microdilution MIC; conditions: Vibrio anguillarum, L. anguillarum
[5] = system: Rhodospirillum salexigens; assay: Marine bacteria microdilution MIC; conditions: Rhodothalassium salexigens, R. salexigens
all of the test strains = assay: Antibiotic activity (MIC) of control 2-aminoimidazoles against the test strains; format: cell-based
Method: To examine the necessity of the 4,5-disubstitution pattern for antimicrobial activity of the 2-aminoimidazole scaffold, two monosubstituted 2-aminoimidazole analogues of compound 19 were synthesized and screened alongside the parent 2-aminoimidazole for antibiotic activity (Scheme 2). Heptanoic acid and phenylhexanoic acid were treated with oxalyl chloride with catalytic dimethyl formamide in dichloromethane to produce the respective acid chlorides, which were then reacted with diazomethane and quenched with hydrobromic acid to make the respective alpha-bromo ketones. These alpha-bromo ketones were separately cyclized with boc-guanidine, providing a boc-protected 2-aminoimidazole scaffold that was subsequently deprotected upon treatment with trifluoroacetic acid in dichloromethane to yield 22 and 23.
as §4

[6] = Staphylococcus epidermidis, read-out: MIC

Q: Which results are given for `Cc1[nH]c(N)nc1CCCCCc1ccccc1` [Compound 11, 5-methyl-4-(5-phenylpentyl)-1H-imidazol-2-amine]?
A: inhibition at 100 µM (E. coli [1]): 96.3 ± 0.08%; inhibition at 100 µM (MDRAB [2]): > 99%; MIC (E. coli [3]): 8 µg/mL (≈ 32.9 µM); MIC (MDRAB [4]): 8 µg/mL (≈ 32.9 µM); MIC (S. epidermidis; [6]): 1 µg/mL (≈ 4.11 µM); MIC (MRSA): 4 µg/mL (≈ 16.4 µM); MIC (MSSA): 2 µg/mL (≈ 8.22 µM); MIC (VRE): 8 µg/mL (≈ 32.9 µM); MIC (Vibrio cholerae): 27.9 µg/mL (≈ 115 µM); MIC (Vibrio vulnificus): 13.9 µg/mL (≈ 57.1 µM); MIC (Listonella anguillarum): 13.9 µg/mL (≈ 57.1 µM); MIC [5]: 7 µg/mL (≈ 28.8 µM)

Q: With `CCc1[nH]c(N)nc1CCCCCc1ccccc1` [Compound 12, 5-ethyl-4-(5-phenylpentyl)-1H-imidazol-2-amine] as the molecule, how does the inhibition at 100 µM (E. coli [1]) read?
A: > 99%

Q: And the inhibition at 100 µM (MDRAB [2])?
A: 94.5 ± 0.2%

Q: And the MIC (E. coli [3])?
A: 16 µg/mL (≈ 62.2 µM)

Q: And the MIC (MDRAB [4])?
A: 32 µg/mL (≈ 124 µM)

Q: And the MIC (S. epidermidis; [6])?
A: 2 µg/mL (≈ 7.77 µM)

Q: What about the MIC (MRSA) of the same molecule?
A: 8 µg/mL (≈ 31.1 µM)

Q: What about the MIC (MSSA) of the same molecule?
A: 4 µg/mL (≈ 15.5 µM)

Q: And the MIC (VRE)?
A: 8 µg/mL (≈ 31.1 µM)

Q: And the MIC (Vibrio cholerae)?
A: 29.4 µg/mL (≈ 114 µM)

Q: And the MIC (Vibrio vulnificus)?
A: 29.4 µg/mL (≈ 114 µM)

Q: And the MIC (Listonella anguillarum)?
A: 14.7 µg/mL (≈ 57.1 µM)

Q: And the MIC [5]?
A: 14.7 µg/mL (≈ 57.1 µM)

Q: For `CCCc1[nH]c(N)nc1CCCCCc1ccccc1` [Compound 13, 4-(5-phenylpentyl)-5-propyl-1H-imidazol-2-amine], which inhibition at 100 µM (E. coli [1]) is on record?
A: 95.8 ± 1.5%

Q: And the inhibition at 100 µM (MDRAB [2])?
A: 87.8 ± 0.3%

Q: And the MIC (E. coli [3])?
A: 8 µg/mL (≈ 29.5 µM)

Q: What about the MIC (MDRAB [4]) of the same molecule?
A: 8 µg/mL (≈ 29.5 µM)

Q: And the MIC (S. epidermidis; [6])?
A: 0.5 µg/mL (≈ 1.84 µM)

Q: What about the MIC (MRSA) of the same molecule?
A: 4 µg/mL (≈ 14.7 µM)

Q: And the MIC (MSSA)?
A: 4 µg/mL (≈ 14.7 µM)

Q: And the MIC (VRE)?
A: 4 µg/mL (≈ 14.7 µM)

Q: What about the MIC (Vibrio cholerae) of the same molecule?
A: 15.4 µg/mL (≈ 56.7 µM)

Q: And the MIC (Vibrio vulnificus)?
A: 3.85 µg/mL (≈ 14.2 µM)

Q: And the MIC (Listonella anguillarum)?
A: 7.7 µg/mL (≈ 28.4 µM)

Q: What about the MIC [5] of the same molecule?
A: 3.85 µg/mL (≈ 14.2 µM)

Q: What does the source list for `CCCCc1[nH]c(N)nc1CCCCCc1ccccc1` [Compound 14, 5-butyl-4-(5-phenylpentyl)-1H-imidazol-2-amine]?
A: inhibition at 100 µM (E. coli [1]): 96.9 ± 1.1%; inhibition at 100 µM (MDRAB [2]): 85.4 ± 0.7%; MIC (E. coli [3]): 4 µg/mL (≈ 14 µM); MIC (MDRAB [4]): 4 µg/mL (≈ 14 µM); MIC (S. epidermidis; [6]): 0.25 µg/mL (≈ 0.876 µM); MIC (MRSA): 2 µg/mL (≈ 7.01 µM); MIC (MSSA): 2 µg/mL (≈ 7.01 µM); MIC (VRE): 2 µg/mL (≈ 7.01 µM); MIC (Vibrio cholerae): 8.05 µg/mL (≈ 28.2 µM); MIC (Vibrio vulnificus): 4.02 µg/mL (≈ 14.1 µM); MIC (Listonella anguillarum): 4.02 µg/mL (≈ 14.1 µM); MIC [5]: 8.05 µg/mL (≈ 28.2 µM)

Q: For `Nc1ncc[nH]1` [Compound 21, 2-aminoimidazole, reference compound], which antibiotic activity (all of the test strains; highest concentration tested (36 μg/mL), every bacterial strain) is on record?
A: no antibiotic activity

Q: What does the source list for `CCCCCCc1c[nH]c(N)n1.Cl` [Compound 22, 4-hexyl-1H-imidazol-2-amine hydrochloride]?
A: MIC (S. epidermidis; [6]): 0.04 µg/mL; MIC (all of the test strains; Staphylococcus epidermidis, all of the test strains except for S. epidermidis): > 41 µg/mL

Q: For `Cl.Nc1nc(CCCCCc2ccccc2)c[nH]1` [Compound 23], which MIC (S. epidermidis) is on record?
A: 0.05 µg/mL

Q: And the antibiotic activity (all of the test strains; any of the test strains except for S. epidermidis)?
A: no notable antibiotic activity
